The values that follow come from PMC9072872, “Structure-based design of nucleoside-derived analogues as sulfotransferase inhibitors” (RSC Advances, 2019).

The structures appear in SMILES notation. pIC50: −log10 of the molar value.

Experiment [1] deals with T1, TPST1 (Homo sapiens, UniProt O60507).
T1 construct: Human TPST1 (residues Lys43-Leu360) enzyme was purified as a recombinant protein; made in house
T1 sequence (O60507 43-360): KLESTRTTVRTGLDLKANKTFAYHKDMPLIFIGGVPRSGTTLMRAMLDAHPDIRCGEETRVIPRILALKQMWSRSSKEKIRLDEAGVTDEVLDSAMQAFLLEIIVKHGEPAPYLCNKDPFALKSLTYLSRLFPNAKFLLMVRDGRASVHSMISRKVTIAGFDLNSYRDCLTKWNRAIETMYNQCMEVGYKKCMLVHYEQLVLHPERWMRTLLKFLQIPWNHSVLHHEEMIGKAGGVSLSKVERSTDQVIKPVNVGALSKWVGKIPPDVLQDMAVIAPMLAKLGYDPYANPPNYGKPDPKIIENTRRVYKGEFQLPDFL
The experiment in a line: Immunoblot of GST-CC4tide tyrosine sulfation by TPST1 (anti-sulfotyrosine antibody). The conditions noted are these: compound 400 μM, GST-CC4-tide 1 μg, TPST1 0.2 μg, PAPS 5 μM, 15 min. In kind it is biochemical. The protocol: In order to further assess TPST1 inhibition by 2′-deoxy-PAP and compounds 1–14 using a complementary assay, immunoblotting of a TPST1 protein substrate (GST-CC4tide) was implemented with a monoclonal antibody that specifically recognises sulfotyrosine, using PAP as positive control (Fig. 5A). Compounds were screened at 400 μM in the assay. In common with the […] enzyme assay using a synthetic peptide, a broad range of inhibitory activities was observed.
Fig. 5 Immunological evaluation of TPST1 inhibition towards substrate and a Ser/Thr protein kinase counter-screen. (A) Immunoblots evaluating TPST1 sulfotransferase activity in the presence of a panel of PAP- and PAPS-mimetic compounds. […] After termination of the reaction using SDS-PAGE sample buffer, tyrosine sulfation was visualised by immunoblotting using a monoclonal sulfotyrosine antibody (top panel), with equal GST-CC4-tide and TPST1 loading confirmed using an antibody to detect 6xHis tagged proteins (bottom panel). (B) Enzymatic inhibition of PKA catalytic activity by a panel of PAP- and PAPS-mimetic compounds. PKA kinase (1 nM) was incubated with ATP (5 μM) in the presence of the appropriate nucleoside analogue (400 μM) for 30 min at 20 °C. PKA activity was calculated in real-time using fluorescently-labelled substrate peptide (2 μM) and normalised to DMSO (4% v/v) or buffer control.[77] Data in B is mean and SD of 3 individual experiments. Staurosporine is included at 40 μM as a generic inhibitor of kinase activity. […]
All standard laboratory biochemicals, were purchased from Sigma, and were of the highest analytical quality.
(§1) 5'-phosphosulfate, lithium salt hydrate, PAP (adenosine 3',5'-diphosphate, disodium salt), CoA (coenzymeA, sodium salt), ATP (adenosine 5’-triphosphate, disodium salt hydrate) were all purchased from Sigma and stored at -80 °C to minimise degradation.
(§2) Recombinant Protein Production and SDS-PAGE
(§3) Human TPST1 (residues Lys43-Leu360) enzyme was purified as a recombinant protein containing an N-terminal 6xHis tag as previously described. […]
pMAL-c2x plasmid encoding an N-terminal Maltose Binding Protein (MBP) affinity tag.6 Glutathione-S-transferase (GST) tagged CC4-tide ([…]) was cloned into pOPINJ (OPPF-UK) and […]
affinity purified from BL21 (DE3) pLysS E. coli using Glutathione-Sepharose 4B (GE Healthcare). 5 For SDS-PAGE, proteins were denatured in Laemmli sample buffer, heated at 95 °C for 5 min and then analysed by SDS-PAGE with 10% (v/v) polyacrylamide gels. Gels were stained and de-stained using a standard Coomassie Brilliant Blue protocol. To evaluate protein sulfation by immunoblotting, standard western blotting procedures were followed using monoclonal anti-sulfotyrosine ant ibody clone o-1C-A2 (Millipore) generated using a phage display procedure and sulfotyrosine selection peptide antigens7 in the presence of appropriate positive and negative controls, and modifications visua lised using ECL […]
Data was normalized […]
with respect to these control assays, with sulfate incorporation into the substr ate limited to ~ 20% to prevent depletion of PAPS and to ensure assay linearity. K m and IC50 values were determined by non-linear regression analysis with GraphPad Prism software. […]
Background: Immunoblotting shows a protein as a band on a membrane.

For experiment [2], the target named is T1, TPST1. The experiment in a line: Microfluidic mobility shift sulfation assay, TPST1 (fluorescent CC4-tide substrate). In kind it is biochemical. The conditions noted are these: for pIC50: read-out: IC50 against TPST1. The protocol: (§4) Compounds were initially screened at 400 μM in the presence 20 nM HS2ST and 0.1 μM TPST1 respectively.
Fig. 4 Summary of enzymatic inhibition assays against HS2ST and TPST1. (A) Enzymatic analysis of HS2ST1 inhibition by a panel of PAP- and PAPS-mimetic compounds. […] HS2ST sulfotransferase activity was assayed using a fluorescent hexasaccharide substrate (2 μM) and normalised to DMSO (4% v/v) or buffer control. Data shown is mean and SD of 4 repeat experiments. (B) Full dose–response curves for selected compounds. […] HS2ST activity calculated as previously described. Data from two independent experiments are combined. (C) Enzymatic analysis of TPST1 inhibition by a panel of PAP- and PAPS-mimetic compounds. […] TPST1 activity was measured using fluorescently-labelled CC4-tide (2 μM) and normalised to DMSO (4% v/v) or buffer control. (D) Full dose–response curves for selected compounds. […] TPST1 activity was measured using CC4-tide and normalised to DMSO or buffer controls as previously described. The data shown is from duplicate experiments. […]
TPST1 peptide substrate (CC4-tide, 5-FAM-EDFED YEFDG-CONH2) was synthesised using solid-phase Fmoc chemistry (Pepceuticals, Leicester, UK). All standard laboratory biochemicals, were purchased from Sigma, and were of the highest analytical quality.
as §1, §2, §3
(§5) Microfluidics-Based Sulfation Assay
(§6) Non-radioactive microfluidic mobility shift peptide and carbohydrate sulfation assays were performed in solution with a 12-sipper chip coated with SR8 reagent and a Perkin Elmer EZ Reader II system 8 using an EDTA-based separation buffer and real-time kinetic evaluation of substrate sulfation. Pressure and voltage settings were adjusted manually to afford optimal separation of the sulfated product and non-sulfated substrate, with a sample (sip) volume of 20 nL, and total assay tim es appropriate for the experiment. The fluorophore tagged TPST1 peptide substrate and HS2ST1 glycan substrate where detected by the EZ Reader via LED-induced fluorescence.
(§7) Individual sulfation assays were assembled in a 384 well plate in a volume of 80 µL in the presence of […]
(§8) and 5 mM MgCl2. The degree of substrate sulfation was directly calculated using EZ Reader software by measuring the sulfo-product:non-sulfated substrate ratio at each time-point. The act ivity of the sulfotransferase enzymes in the presence of biochemicals and small molecule inhibitors was quantified in ‘kinetic mode’ by monitoring the amount of sulfated product generated over the assay time, relative to control assay with no additional inhibitor molecule (DMSO or buffer control). Data was normalized with respect to these control assays, with sulfate incorporation into the substr ate limited to ~ 20% to prevent depletion of PAPS and to ensure assay linearity. K m and IC50 values were determined by non-linear regression analysis with GraphPad Prism software. […]

The target of experiment [3] is T2, HS2ST (Gallus gallus, UniProt Q76KB1).
T2 construct: made in house; host or cells: E. coli Rosetta-gami (DE3)
T2 sequence (Q76KB1 1-356): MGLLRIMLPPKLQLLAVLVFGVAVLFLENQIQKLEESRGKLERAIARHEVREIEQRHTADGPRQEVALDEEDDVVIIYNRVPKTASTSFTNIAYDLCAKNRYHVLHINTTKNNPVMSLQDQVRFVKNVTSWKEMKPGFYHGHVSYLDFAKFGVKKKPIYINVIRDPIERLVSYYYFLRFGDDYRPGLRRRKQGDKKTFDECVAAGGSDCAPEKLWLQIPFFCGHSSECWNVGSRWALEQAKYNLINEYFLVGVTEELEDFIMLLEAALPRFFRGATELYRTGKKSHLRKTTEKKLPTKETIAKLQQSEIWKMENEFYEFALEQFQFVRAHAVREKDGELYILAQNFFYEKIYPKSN
The experiment in a line: Microfluidic mobility shift sulfation assay, HS2ST (fluorescent hexasaccharide substrate). The conditions noted are these: read-out: IC50 against HS2ST. Format: biochemical, chicken. The protocol: as §4
Fig. 4 Summary of enzymatic inhibition assays against HS2ST and TPST1. (A) Enzymatic analysis of HS2ST1 inhibition by a panel of PAP- and PAPS-mimetic compounds. […] HS2ST sulfotransferase activity was assayed using a fluorescent hexasaccharide substrate (2 μM) and normalised to DMSO (4% v/v) or buffer control. Data shown is mean and SD of 4 repeat experiments. (B) Full dose–response curves for selected compounds. […] HS2ST activity calculated as previously described. Data from two independent experiments are combined. (C) Enzymatic analysis of TPST1 inhibition by a panel of PAP- and PAPS-mimetic compounds. […] TPST1 activity was measured using fluorescently-labelled CC4-tide (2 μM) and normalised to DMSO (4% v/v) or buffer control. (D) Full dose–response curves for selected compounds. […] TPST1 activity was measured using CC4-tide and normalised to DMSO or buffer controls as previously described. The data shown is from duplicate experiments.
N-sulfated, fluorescein-tagged HS2ST1 hexasaccharide glycan substrate (GlcNS-GlcA- GlcNS-IdoA-GlcNS-GlcA-fluorescein, where S=sulfation) containing L-IdoA at the third residue from the reducing end (to which a linker and the fluorophore were conjugated) was purchased from GLY CAN therapeutics. TPST1 peptide substrate (CC4-tide, 5-FAM-EDFED YEFDG-CONH2) was synthesised using solid-phase Fmoc chemistry (Pepceuticals, Leicester, UK). All standard laboratory biochemicals, were purchased from Sigma, and were of the highest analytical quality.
as §1
Recombinant Protein Production and SDS-PAGE […]
as §5, §6, §7, §8

The test system of experiment [4] is sulfotransferase. Details: method as in PMID 29934491, PMID 29934490. The conditions noted are these: non nucleoside-derived; cited from earlier work.

With `Nc1ncnc2c1ncn2[C@H]1C[C@H](OCC(=O)NO)[C@@H](COCC(=O)NO)O1` [Compound 3], the “suppression of tyrosine sulfation (immunoblot)” value (from here on “suppression”) in experiment [1] was “partial suppression”. One may read the pIC50 as −log10 of the IC50, conventionally taken in molar units. For the compound `COC(=O)COC1CC(n2cnc3c(N)ncnc32)OC1COP(=O)(O)O` (stereo not drawn) [Compound 5], the pIC50 in experiment [2] was 3.52 to 4.00. Also, the “suppression” value in experiment [1] is given as “complete suppression”. On to `Nc1ncnc2c1ncn2[C@H]1C[C@H](OP(=O)(O)O)[C@@H](Cn2cc(C(=O)O)nn2)O1` [Compound 8], for which the negative-log IC50 (pIC50) in experiment [3] was 3.52 to 4.00. The “suppression” value in experiment [1] was “partial suppression”. Take `Cc1ccc(C(=O)Nc2ccc(S(=O)(=O)O)c3cc(S(=O)(=O)O)cc(S(=O)(=O)O)c23)cc1NC(=O)c1cccc(NC(=O)Nc2cccc(C(=O)Nc3cc(C(=O)Nc4ccc(S(=O)(=O)O)c5cc(S(=O)(=O)O)cc(S(=O)(=O)O)c45)ccc3C)c2)c1` [suramin]: the sulfotransferase inhibitor potency result in experiment [4] is “low/sub-micromolar”.

Consider `Nc1ncnc2c1ncn2[C@H]1C[C@H](O)[C@@H](Cn2cc(C(=O)OCc3ccccc3)nn2)O1` [Compound 9], for which the pIC50 in experiment [3] was 3.52 to 4.00. In experiment [1], the “suppression” value was “partial suppression”. Turning to `Nc1ncnc2c1ncn2[C@@H]1O[C@H](COP(=O)(O)O)[C@@H](OP(=O)(O)O)[C@H]1O` [PAP, adenosine 3′,5′-diphosphate, reference compound], the pIC50 in experiment [2] is 5.82; in experiment [3] it was 5.70. Turning to `Nc1ncnc2c1ncn2[C@H]1C[C@H](O)[C@@H](Cn2cc(C(=O)O)nn2)O1` [Compound 7], in experiment [2] (compound 400 μM, TPST1 0.1 μM, PAPS 5 μM), the “inhibitory activity against TPST1” value was “showed activity”. Also, in experiment [1], the “suppression” value is “did not show any activity”.

Take `COC(=O)COC1CC(n2cnc3c(N)ncnc32)OC1COP(=O)(O)OCc1ccccc1` (stereo not drawn) [Compound 6]: in experiment [2], the pIC50 is 3.52 to 4.00. Besides, in experiment [1], the “suppression” value was “complete suppression”. In the case of `CC(=O)c1c(O)c(C)c(O)c(Cc2c(O)c3c(c(C(=O)/C=C/c4ccccc4)c2O)OC(C)(C)C=C3)c1O` [rottlerin], the sulfotransferase inhibitor potency result in experiment [4] is “low/sub-micromolar”.
